Results published in patent US20250064712A1, “METHOD FOR AMPLIFYING EXPRESSION OF EPIDERMAL BARRIER FUNCTION-RELATED GENE” (J-Network, Inc., priority 2023, published 2025).

Columns and labels:
LOR gene = assay: Test for amplification of mRNA expression of LOR gene (quantitative real-time PCR, GAPDH internal standard); assay type: cell-based, human; settings: NHEKs, GDM12 100 μM, culture time 30 hr, control = 1
Experimental: (§1) Normal human epidermal keratinocytes (NHEKs) were seeded on a 96-well plate at a cell density of 2.0×10^4cells/well using HuMedia-KG2 medium (manufactured by Kurabo Industries Ltd.), and cultured under the conditions of 37° C. and 5% CO2 for 24 hours.
(§2) Thereafter, a diacylglycerol PEG adduct was added thereto using HuMedia-KB2 medium (manufactured by Kurabo Industries Ltd.), and each was cultured under the conditions of 37° C. and 5% CO2 for a predetermined time. Table 1 represents the target gene, the types of diacylglycerol PEG adduct added, the adding amount, and the culture time. A control (no addition) was also cultured under the same conditions.
(§3) After the cells were cultured for each predetermined time, RNA was extracted from the cells of each sample and control. The extracted RNA was reverse-transcribed to prepare cDNA, and the mRNA of the target gene was quantified by quantitative real-time PCR expression analysis. GAPDH (glyceraldehyde 3-phosphate dehydrogenase) was used as an internal standard.
(§4) In the analysis, the mRNA expression level of each target gene was corrected with the value of the expression level of GAPDH, which is an internal standard in the same sample, and the correction value of the sample was calculated as a relative expression level when the correction value of the control was set to 1.

IVL gene = assay: Test for amplification of mRNA expression of IVL gene (quantitative real-time PCR, GAPDH internal standard); assay type: cell-based, human; settings: NHEKs, GDM12 100 μM, culture time 30 hr, control = 1
Experimental: as §1, §2, §3, §4

SULT2B1 gene = assay: Test for amplification of mRNA expression of SULT2B1 gene (quantitative real-time PCR, GAPDH internal standard); assay type: cell-based, human; settings: NHEKs, control = 1
Experimental: as §1, §2, §3, §4

PPARA gene = assay: Test for amplification of mRNA expression of PPARA gene (quantitative real-time PCR, GAPDH internal standard); assay type: cell-based, human; settings: NHEKs, GDS23 50 μM, culture time 24, 30, 36 hr, control = 1
Experimental: as §1, §2, §3, §4

CERS3 gene = assay: Test for amplification of mRNA expression of CERS3 gene (quantitative real-time PCR, GAPDH internal standard); assay type: cell-based, human; settings: NHEKs, GDS23 50 μM, culture time 36 hr, control = 1
Experimental: as §1, §2, §3, §4

loricrin = assay: Test for detecting production of loricrin, loricrin immunostaining method; assay type: cell-based, human; settings: LabCyte EPI-MODEL24 6D, 50 μL of 2% GDS23 solution applied for 24 hours, collected 9 days after application, vs purified water control
Experimental: A test for detecting the production of loricrin encoded by the LOR genes was performed using two staining methods: an immunostaining method using an anti-loricrin antibody and a hematoxylin-eosin staining method.
Treatment of epidermal model Three-dimensional cultured human epidermal model (LabCyte EPI-MODEL24 6D: manufactured by Japan Tissue Engineering Co., Ltd.) was cultured in a medium (assay medium: manufactured by Japan Tissue Engineering Co., Ltd.) at 37° C. for 24 hours. […]
After the blocking agent was aspirated, an anti-loricrin antibody (manufactured by Proteintech Japan) (diluted 50 times with a 3% BSA/PBS solution) was added to the section, and the primary antibody reaction was carried out overnight at 4° C. Thereafter, a Goat Anti-Rabbit IgG H&L (Alexa Fluor (registered trademark) 488 antibody (manufactured by Abcam PLC) (diluted 250 times with a 3% BSA/PBS solution) was added thereto, and the secondary antibody reaction was carried out for 1 hour at room temperature in a dark place. And then, nuclear staining was performed with DAPI diluted 200 times with a 3% BSA/PBS solution. A fluorescence microscope (BZ-X810, KEYENCE) was then used to observe the green and blue fluorescence. The green fluorescence indicates the presence of loricrin. The blue fluorescence stains the nuclei of the epidermal model to confirm that the cells are normal.

[1] = tested on: Three-dimensional cultured human epidermal model; assay: Hematoxylin-eosin staining and DAPI nuclear staining of epidermal model (cell abnormality check); assay type: cell-based; settings: LabCyte EPI-MODEL24 6D, 50 μL of 2% GDS23 solution applied for 24 hours, collected 9 days after application
Experimental: Treatment of epidermal model Three-dimensional cultured human epidermal model (LabCyte EPI-MODEL24 6D: manufactured by Japan Tissue Engineering Co., Ltd.) was cultured in a medium (assay medium: manufactured by Japan Tissue Engineering Co., Ltd.) at 37° C. for 24 hours.
Thereafter, the medium was exchanged, and 50 μL of a sample prepared with purified water (2% preparation solution of GDS23) was applied to the surfaces of the stratum corneum, followed by continuous culture for 24 hours. The control for comparison was applied with purified water only.
Subsequently, the sample on the surface of the stratum corneum of the epidermal model was sucked up with a sterilized cotton swab to remove the excess sample, and then the epidermal model was continuously cultured without newly applying the sample on the surface of the stratum corneum, and the epidermal model was collected 9 days after the sample was applied.
After the blocking agent was aspirated, an anti-loricrin antibody (manufactured by Proteintech Japan) (diluted 50 times with a 3% BSA/PBS solution) was added to the section, and the primary antibody reaction was carried out overnight at 4° C. […]

| Substance | relative expression level of LOR genes (LOR gene) | relative expression level of IVL genes (IVL gene) | relative expression level of SULT2B1 genes (SULT2B1 gene; GDM12 100 μM, culture time 30 hr) | relative expression level of PPARA genes (PPARA gene) | relative expression level of CERS3 genes (CERS3 gene) | relative expression level of SULT2B1 genes (SULT2B1 gene; GDS23 50 μM, culture time 24 hr) | production amount of loricrin in the stratum corneum (green fluorescence) (loricrin) | abnormality in the cells of the epidermal model (blue fluorescence, hematoxylin-eosin staining) [1] |
| --- | --- | --- | --- | --- | --- | --- | --- | --- |
| PEG-12 glycerol dimyristate [GDM12] | about 1.3 times that of the control | about 1.5 times that of the control | about 1.6 times that of the control | – | – | – | – | – |
| PEG-23 glycerol distearate [GDS23] | – | – | – | about 2.2 times that of the control | about 2 times that of the control | about 1.2 times that of the control | higher than that of the control epidermal model | no abnormality in the cells of the epidermal model |
